# Results: patent publication US12552760B2, “Compounds for increasing the nicotinamide adenine dinucleotide in a subject and methods of use thereof” (The Board of Trustees of the University of Illinois, priority 2022, dated 2026)
# Entries after “also recorded” stand apart in the source; their conditions may differ.
# Legend:
# Csb^m/m mice = settings: 500 mg/kg/d (i.p.) 1 week; Scheibye-Knudsen, M. et al. 2014; cited from earlier work
# GMC101 worms = settings: 1 mM, 1-8 days; Sorrentino, V. et al. 2017; cited from earlier work
# [1] = tested on: hSOD1^G93A mouse derived astrocytes and motor neurons; settings: NR or NMN, 5 mM, 24-72 h; Harlan, B. A. et al. 2019; cited from earlier work
# [2] = tested on: 3xTgAD, and 3xTgAD/Polβ^+/− mice; settings: 12 mM in drinking water p.o. 6 months; Hou, Y. et al. 2018; cited from earlier work
# [3] = tested on: Tg2576/PGC-1α knockout mice; settings: 250 mg/kg/d (p.o) 3 months; Gong, B. et al. 2013; cited from earlier work
# APPSwe/PSEN1dE9 mice = settings: 400 mg/kg/d (p.o.) 10 weeks; Sorrentino, V. et al. 2017; cited from earlier work
# THP-1 human monocytes = assay: Measurement of cellular NAD^+ levels in THP-1 cell cultures (NAD/NADH-Glo); type: cell-based; settings: for potency in THP-1 relative to NP-A3-B2 (cellular EC50 not quantifiable): dose response studies; for ability to raise NAD^+ levels compared to the parent compound NP-A3-B2: initial screening, 3 μM, 24 hours, data not shown
# Description: Measurement of cellular NAD^+ levels in THP-1 cell cultures. Using FK-866 and NMN as negative and positive controls, respectively, we explored a number of cell lines to select a highly reproducible model system with good dynamic range. We optimized a commercial NAD-glo assay in the THP-1 human leukemic monocyte cell line in 96-well plates, measuring NAD^+ after incubation with test compounds for 24 hours. […] All cells were grown at 37° C., under 5% CO2 in a humidified incubator. Low passage THP-1 cells (37,500 cells/well) were seeded in 96-well plates and incubated at 37° C. and 5% CO2 for 1½ h prior to a 24 h treatment. All compounds were dissolved in DMSO, and final DMSO concentrations never exceeded 1%. The NAD^+ levels in the cells are measured using the NAD^+/NADH-Glo™ assay (Promega). The assays were performed in triplicate for each concentration and the IC50 values were determined from non-linear regression analysis of the dose-response curve generated in GraphPad Prism 9.
# NAMPT = target: T1, NAMPT (Homo sapiens, UniProt P43490); assay: NAMPT coupled enzyme activity assay (HTS coupled three-enzyme assay); type: biochemical; settings: dose-response (FIG. 1B)
# T1 construct: His6 (C); made in house
# Source text: NAMPT coupled enzyme activity assay. The NAMPT enzyme assay is based on conditions from Burgos and Schramm and adapted to include a cycling reaction to quantitate NAD^+ production colorimetrically^1. The assay follows the NAMPT-catalyzed production of NMN from substrates NAM and PRPP by coupling NMN formation to the NMNAT reaction, which produces NAD^+ from NMN and ATP. The NAD^+ is then cycled by alcohol dehydrogenase (ADH) and diaphorase to continuously produce WST-1 formazan, which can be detected at 450 nm. Assays are performed at 25° C. in clear 384-well plates, with a final assay volume of 30 μL, and contain the following: 50 mM HEPES, pH 7.5, 5 mM MgCl2, 50 mM NaCl, 0.01% Triton-X 100, 2.5 mM ATP, 40 μM PRPP, 1-500 μM NAM, 1.5 μL WST-1 (Roche Cell Proliferation Reagent), 1 U/mL ADH, 0.083 U/mL diaphorase, 1.5% ethanol, 1% DMSO, 30 nM NAMPT, and 7.4 nM purified human NMNAT1. N-terminal His6-NMNAT1 and C-terminal His6-NAMPT were overexpressed and purified by metal chelate affinity chromatography. Following assay assembly, well signals were measured continuously at 450 nm on a Tecan Infinite M200 plate reader for 1 h with intermittent shaking. Slopes of the linear portions of the reaction progress curves were recorded and corrected for background by subtracting the average slope of control wells containing NAMPT inhibitor FK866.
# A high-throughput screen (HTS) of 22,000 compounds was performed to identify those that augment NAMPT enzymatic activity^38. Screening used a coupled three-enzyme assay to detect conversion of NAM to NAD^+, as previously described by our group^37. […] We also established assays in which to assess the ability of our compounds to mitigate neuronal oxidative stress.
# [4] = tested on: HT-22 mouse hippocampal cell line; assay: TNFα-induced ROS in HT-22 cells (MitoSOX); type: cell-based; settings: for effect on ROS levels across tested concentrations: screened against 1 μg/mL TNFα (FIG. 2A)
# Description: (§1) Cell Culture and Drug Treatments. HT22 mouse hippocampal neuronal cells (a gift from the Salk Institute) were grown in Dulbecco's modified Eagle's medium (DMEM) containing 10% FBS and 1× Antibiotic-Antimycotic (ABAM). Cells were maintained in a humidified 5% CO2 atmosphere incubator at 37° C., and were passaged when 60-80% confluent (1-2 days) by removing media, rinsing with phosphate buffered saline (PBS), and enzymatically detaching with trypsin solution. New culture dishes were seeded with ¼ to ½ the cells from the previous dish.
# All assays were performed using cells with passage number 12-50. The inner 60 wells of black-walled (Corning®3603/3604) 96-well plates were treated with poly D-lysine (30 μL/well) making sure to cover the entire well surface for 15-30 seconds and then washed thoroughly with sterile water (3×−200 μL/well). TNFα stock solutions (10 μg/mL, PBS (0.1% BSA)) were made, aliquoted, and stored at −80° C. Glutamate stock solutions were made fresh immediately before assay. All compound stock solutions (10 mM, DMSO) were made and stored at −20° C.
# Cells were plated at a seeding density of 3,000-5,000 cells/well and allowed to incubate overnight. The next day (18-24 hours later) cells were pretreated with N-PAMs, carefully ensuring equivalent vehicle (DMSO/PBS) composition in each well. After 18-24 hours, stressors (glutamate or TNFα) were treated. Live cell count, ROS level, and total cell count were then assessed after another 18-24 hours.
# ROS Detection. ROS levels were quantified using MitoSOX Red Mitochondrial Superoxide Indicator (Invitrogen). At treatment endpoint, the cell culture media was removed and replaced with phosphate buffered saline (PBS) containing 1 μM calcein-AM, 5 μM MitoSOX, and 10 μg/mL Hoechst dyes. Cells were incubated for 30-45 minutes and then dye-containing PBS was dumped and replaced with 100 μL/well fresh PBS. The plate was immediately analyzed in the Celigo Imaging Cytometer using the Live-Dead-Total protocol, where MitoSOX was used in place of propidium iodide. The cell counts and fluorescence intensities for living (calcein), MitoSOX-stained, and total (Hoechst) were acquired. MitoSOX average mean fluorescence intensity (“dead” average mean intensity) was used to quantify mitochondrial ROS. All readouts used were transformed into fold-change over vehicle treatment for visualization.
# We set out to design assays representing the connection between OS and the multifaceted pathophysiology of aging and ND. We assessed multiple treatments in several cell lines to model OS induced by diverse factors such as neuroinflammatory signaling, neurotransmitter signaling, and direct oxidant species. Assay development highlighted the neuronal HT-22 mouse hippocampal cell line as most robust for these purpose s, and inflammatory cytokine TNFα as being a reliable and disease-relevant method for inducing ROS generation.
# [5] = tested on: HT-22 mouse hippocampal cell line; assay: Glutamate-induced ROS in HT-22 cells (MitoSOX); type: cell-based; settings: 75 mM glutamate
# Description: as §1
# All assays were performed using cells with passage number 12-50. […]
# Cells were plated at a seeding density of 3,000-5,000 cells/well and allowed to incubate overnight. […] Live cell count, ROS level, and total cell count were then assessed after another 18-24 hours.
# ROS Detection. ROS levels were quantified using MitoSOX Red Mitochondrial Superoxide Indicator (Invitrogen). […] The plate was immediately analyzed in the Celigo Imaging Cytometer using the Live-Dead-Total protocol, where MitoSOX was used in place of propidium iodide. The cell counts and fluorescence intensities for living (calcein), MitoSOX-stained, and total (Hoechst) were acquired. MitoSOX average mean fluorescence intensity (“dead” average mean intensity) was used to quantify mitochondrial ROS. All readouts used were transformed into fold-change over vehicle treatment for visualization.
# [6] = dose response study, 30 μM (FIG. 1A)
# T1 sequence (P43490 whole entry): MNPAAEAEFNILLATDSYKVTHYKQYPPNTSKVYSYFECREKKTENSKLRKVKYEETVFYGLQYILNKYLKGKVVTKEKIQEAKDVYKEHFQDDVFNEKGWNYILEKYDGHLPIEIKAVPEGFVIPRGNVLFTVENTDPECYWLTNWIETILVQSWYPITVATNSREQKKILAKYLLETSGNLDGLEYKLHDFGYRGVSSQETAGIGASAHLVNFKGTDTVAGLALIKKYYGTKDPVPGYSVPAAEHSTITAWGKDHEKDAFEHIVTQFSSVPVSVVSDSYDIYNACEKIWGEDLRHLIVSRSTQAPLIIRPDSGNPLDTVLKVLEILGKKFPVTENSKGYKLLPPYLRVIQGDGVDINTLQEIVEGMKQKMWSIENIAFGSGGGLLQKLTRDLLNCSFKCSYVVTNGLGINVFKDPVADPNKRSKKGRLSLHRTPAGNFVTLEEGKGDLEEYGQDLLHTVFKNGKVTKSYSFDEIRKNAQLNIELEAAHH
structure (smiles),measurement,setting,value
NC(=O)c1ccc[n+]([C@@H]2O[C@H](CO)[C@@H](O)[C@H]2O)c1 [NR],"cerebellar NAD^+ ATP, mitochondrial function",Csb^m/m mice,Rescued
same,"gene profile associated with oxidative stress, DNA repair, mitochondrial function",Csb^m/m mice,Normalized gene
same,health- and lifespan of worms,GMC101 worms,Increased health-
same,proteotoxicity and aggregation of Aβ,GMC101 worms,Reduced
same,Nrf2 mediated Antioxidant Response Element activation,[1],Increased Nrf2
same,NAD^+/NADH ratio,[2],Increased
same,"learning, memory, motor function, and anxiety",[2],Improved
same,neurogenesis,[2],Increased
same,neuroinflammation,[2],Decreased
same,p-Tau levels,[2],Decreased p-Tau
same,synaptic plasticity,[2],Restored synaptic
same,NAD^+ levels and PGC-1α expression,[3],Increased NAD^+
same,cognitive (novel object recognition) performance,[3],Improved
same,synaptic plasticity,[3],Improved synaptic
same,Aβ aggregation,APPSwe/PSEN1dE9 mice,Reduced Aβ
same,impaired memory,APPSwe/PSEN1dE9 mice,Enhanced
same,mitochondrial function,APPSwe/PSEN1dE9 mice,Improved
"COc1ccc(CN(CCC2(C(C)C)CCOC(C)(C)C2)C(=O)c2ccsc2)cc1 (stereo not drawn) [JGB-1-127, N-(2-(4-isopropyl-2,2-dimethyltetrahydro-2H-pyran-4-yl)ethyl)-N-(4-methoxybenzyl)thiophene-3-carboxamide]",potency in THP-1 relative to NP-A3-B2 (cellular EC50 not quantifiable),THP-1 human monocytes,improved potency
same,ability to raise NAD^+ levels compared to the parent compound NP-A3-B2,THP-1 human monocytes,significantly greater ability to raise NAD^+ levels
"COc1ccc(CN(CCC2(C(C)C)CCOC(C)(C)C2)C(=O)c2cnc[nH]2)cc1 (stereo not drawn) [JGB-1-147, N-(2-(4-isopropyl-2,2-dimethyltetrahydro-2H-pyran-4-yl)ethyl)-N-(4-methoxybenzyl)-1H-imidazole-5-carboxamide]",IC50,NAMPT; NAMPT inhibition,5.32 µM
same,Amax,NAMPT,0.25 fold
same,effect on NAMPT activity,NAMPT,inhibitory activity; also recorded: inhibits NAMPT
"CC(C)C1(CCN(Cc2ccc3[nH]ccc3c2)C(=O)c2ccco2)CCOC(C)(C)C1 (stereo not drawn) [JGB-1-134, N-((1H-indol-5-yl)methyl)-N-(2-(4-isopropyl-2,2-dimethyltetrahydro-2H-pyran-4-yl)ethyl)furan-2-carboxamide]",ability to raise NAD^+ levels compared to the parent compound NP-A3-B2,THP-1 human monocytes,significantly greater ability to raise NAD^+ levels
same,effect on ROS levels at 40 μM,"[4]; 1 μg/mL TNFα, 40 μM compound (FIG. 2A)",trended toward ROS mitigation
same,effect on ROS levels across tested concentrations,[4],little effect until 40 μM
O=C(NCc1ccncc1)Nc1ccc(S(=O)(=O)N2CC3CCC(C2)O3)cc1 [SBI-797812],effect on ROS levels across tested concentrations,[4],no significant effects on ROS at any concentration tested
"CC(C)C1(CCN(Cc2ccc(N(C)C)cc2)C(=O)c2ccco2)CCOC(C)(C)C1 (stereo not drawn) [JGB-1-155, N-(4-(dimethylamino)benzyl)-N-(2-(4-isopropyl-2,2-dimethyltetrahydro-2H-pyran-4-yl)ethyl)furan-2-carboxamide]",activity in THP-1,THP-1 human monocytes; SAR summary (FIGS. 4 and 5),improved activity
same,potency in THP-1 relative to NP-A3-B2 (cellular EC50 not quantifiable),THP-1 human monocytes,improved potency
same,NAD^+ fold over control,THP-1 human monocytes; [6],1.88 fold
same,increase in NAD^+ over control,THP-1 human monocytes; [6],88%
same,ability to raise NAD^+ levels compared to the parent compound NP-A3-B2,THP-1 human monocytes,significantly greater ability to raise NAD^+ levels
same,ROS attenuation relative to other analogs and the hit,[4]; 1 μg/mL TNFα (FIG. 2A),outperformed all other analogs and the hit in ROS attenuation
same,activity in HT-22,"[4]; SAR summary, over the 4-methoxy compounds (FIGS. 4 and 5)",improved activity
same,reduction of TNFα-induced ROS,"[4]; further replicates, 20 μM and 40 μM (FIG. 2B)",highly significant reduction of TNFα-induced ROS
same,effect on ROS levels across tested concentrations,[4],dose-dependent downward trend in ROS levels
same,EC50,NAMPT; NAMPT activation,3.41 µM
same,ROS-reducing activity against glutamate insult,[5],dose-dependent ROS-reducing activity
same,ROS levels relative to vehicle treated control,[5]; 20 μM and 40 μM (FIG. 2D),decreased ROS levels below that of the vehicle treated control
"COc1ccc(CN(CCC2(C(C)C)CCOC(C)(C)C2)C(=O)c2cccs2)cc1 (stereo not drawn) [JGB-1-137, N-(2-(4-isopropyl-2,2-dimethyltetrahydro-2H-pyran-4-yl)ethyl)-N-(4-methoxybenzyl)thiophene-2-carboxamide]",NAD^+ production in THP-1,"THP-1 human monocytes; SAR summary, thiophene replacement of the R^2 furan (FIGS. 4 and 5)",significantly improved NAD^+ production
same,potency in THP-1 relative to NP-A3-B2 (cellular EC50 not quantifiable),THP-1 human monocytes,improved potency
same,ability to raise NAD^+ levels compared to the parent compound NP-A3-B2,THP-1 human monocytes,significantly greater ability to raise NAD^+ levels
same,effect on ROS levels across tested concentrations,[4],dose-dependent downward trend in ROS levels
